Measured values reported in paper PMC12540828, “Fexofenadine protects against osteoarthritis by targeting Smad2 and STAT1 to enhance anabolism and binding cPLA2 to inhibit catabolism” (Cell Death Discovery, 2025).
pKd: −log10 of the molar value.

How the values were obtained:
cPLA2 = biological target: T1, cPLA2 (Homo sapiens, UniProt P47712); assay: DARTS, Western blot; assay type: biochemical; conditions: chondrocyte lysate; protease digestion
T1 construct: gene PLA2G4A; endogenous, chondrocyte lysate, read by Western blot
T1 sequence (P47712 1-749): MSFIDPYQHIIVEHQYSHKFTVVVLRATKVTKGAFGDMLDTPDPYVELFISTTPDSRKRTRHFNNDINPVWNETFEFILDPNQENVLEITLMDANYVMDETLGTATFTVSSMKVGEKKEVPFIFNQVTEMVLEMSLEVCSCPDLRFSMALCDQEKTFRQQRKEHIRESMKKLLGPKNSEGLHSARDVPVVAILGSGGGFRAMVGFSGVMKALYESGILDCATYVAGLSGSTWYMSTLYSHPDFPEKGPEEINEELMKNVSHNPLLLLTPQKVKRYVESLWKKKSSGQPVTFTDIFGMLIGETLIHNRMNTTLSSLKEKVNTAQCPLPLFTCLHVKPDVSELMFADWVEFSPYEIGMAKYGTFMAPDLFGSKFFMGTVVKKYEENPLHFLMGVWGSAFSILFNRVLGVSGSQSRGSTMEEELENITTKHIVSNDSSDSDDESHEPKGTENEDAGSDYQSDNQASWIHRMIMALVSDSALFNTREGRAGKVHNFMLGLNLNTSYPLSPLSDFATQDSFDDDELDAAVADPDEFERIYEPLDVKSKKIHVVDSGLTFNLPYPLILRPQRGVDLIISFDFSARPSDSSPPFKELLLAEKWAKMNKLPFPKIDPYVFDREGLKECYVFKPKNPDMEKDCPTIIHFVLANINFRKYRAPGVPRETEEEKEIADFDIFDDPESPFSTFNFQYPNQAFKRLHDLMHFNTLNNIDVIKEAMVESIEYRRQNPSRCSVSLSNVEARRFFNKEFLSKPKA

[1] = biological target: T2, Smad2 (endogenous, human chondrocytes) (Homo sapiens, UniProt Q15796); assay: CETSA and DARTS, Western blot; assay type: biochemical; conditions: CETSA with FFD 10 μM
T2 construct: endogenous, read by Western blot

[2] = biological target: T3, STAT1 (endogenous, human chondrocytes) (Homo sapiens, UniProt P42224); assay: CETSA, Western blot; assay type: biochemical; conditions: FFD 10 μM
T3 construct: endogenous, read by Western blot
T3 sequence (P42224 2-750): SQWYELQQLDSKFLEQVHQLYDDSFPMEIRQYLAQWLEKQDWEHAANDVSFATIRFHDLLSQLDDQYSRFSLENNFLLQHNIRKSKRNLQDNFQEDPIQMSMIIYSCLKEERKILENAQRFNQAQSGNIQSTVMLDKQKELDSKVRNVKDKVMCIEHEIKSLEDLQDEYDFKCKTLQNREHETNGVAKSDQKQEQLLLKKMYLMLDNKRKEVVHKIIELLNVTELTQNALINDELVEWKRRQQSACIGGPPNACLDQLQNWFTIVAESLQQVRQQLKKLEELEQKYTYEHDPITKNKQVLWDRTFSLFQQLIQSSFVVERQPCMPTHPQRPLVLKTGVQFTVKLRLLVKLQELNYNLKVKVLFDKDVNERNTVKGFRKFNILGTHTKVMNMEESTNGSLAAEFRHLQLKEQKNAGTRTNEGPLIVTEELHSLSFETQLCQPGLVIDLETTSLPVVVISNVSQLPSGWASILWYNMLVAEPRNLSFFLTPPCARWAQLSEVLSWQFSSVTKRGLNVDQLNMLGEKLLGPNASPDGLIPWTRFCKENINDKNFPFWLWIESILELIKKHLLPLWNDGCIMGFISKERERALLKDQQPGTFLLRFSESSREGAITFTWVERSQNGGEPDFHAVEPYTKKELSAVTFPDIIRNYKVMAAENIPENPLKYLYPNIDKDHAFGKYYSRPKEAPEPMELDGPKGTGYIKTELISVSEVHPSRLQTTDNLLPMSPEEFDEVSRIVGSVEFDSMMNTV

[3] = biological target: T4, STAT1 (purified recombinant, His-tagged) (Homo sapiens, UniProt P42224); assay: microscale thermophoresis; assay type: binding
T4 construct: purified recombinant, His-tagged, RED-NHS labelled
T4 sequence (P42224 2-750): T3 sequence (P42224 2-750)

T2 sequence (Q15796 2-467): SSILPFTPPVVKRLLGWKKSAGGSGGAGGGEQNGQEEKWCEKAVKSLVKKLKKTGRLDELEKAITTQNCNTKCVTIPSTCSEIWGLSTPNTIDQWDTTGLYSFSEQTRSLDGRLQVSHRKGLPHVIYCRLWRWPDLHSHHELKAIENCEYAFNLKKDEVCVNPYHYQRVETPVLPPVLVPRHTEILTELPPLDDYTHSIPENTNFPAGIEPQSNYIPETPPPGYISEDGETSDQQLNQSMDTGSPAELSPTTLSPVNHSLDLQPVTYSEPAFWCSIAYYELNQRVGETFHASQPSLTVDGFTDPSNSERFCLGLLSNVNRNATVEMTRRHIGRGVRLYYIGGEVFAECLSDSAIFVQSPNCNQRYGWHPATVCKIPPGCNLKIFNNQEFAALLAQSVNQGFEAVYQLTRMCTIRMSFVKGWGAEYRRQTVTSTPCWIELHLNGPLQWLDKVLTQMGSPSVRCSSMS

CC(C)(C(=O)O)c1ccc(C(O)CCCN2CCC(C(O)(c3ccccc3)c3ccccc3)CC2)cc1 (stereo not shown) [Fexofenadine]
DARTS, Western blot (cPLA2): cPLA2 remained undigested by the protease following incubation with FFD
CETSA and DARTS, Western blot [1]: DARTS and CETSA experiments subsequently confirmed the interaction between FFD and Smad2
Tm with FFD (control 50.49) [2]: 60.01 °C
pKd [3]: 5.52
